Patent US6096874A (Board of Regents, the University of Texas System, priority 1995, dated 2000)

What was measured:
[1] = Biodistribution in estradiol-primed or unprimed female Sprague-Dawley rats; type: in vivo, rat
Procedure: Four groups of rats (150-200 gm, N=4/group) were anesthetized with ketamine (10-15 mg/rat). […]. Tissue uptake of ^18 F-tracer was determined at 2 and 4 hours (h). To ascertain whether the ^18 F-tracer uptake was mediated by a receptor-process, one group of rats was given ^18 F-tracer without priming with estradiol; and another group of rats was given unlabeled estradiol (30 μg/rat) together with ^18 F-tracer. […].
The inventors first determined the in vivo tissue distribution of [^18 F-FTX] in rats. Specifically, four groups of female Sprague-Dawley rats (N=4/group, 200-250 gm; obtained from Harlan Inc., Indianapolis, Ind.) were anesthetized with ketamine (10-15 mg/rat). […]. The tissue distribution was studied at 2 hour and 4 hour intervals.

breast tumors = assay: PET imaging of ER+ breast tumors in patients; type: in vivo, human; settings: for SUV in lesion of patients responding poorly to tamoxifen therapy: 4/5 patients
uterus and ovaries = assay: PET imaging of pig uterus and ovaries and blood clearance in pigs; type: in vivo; settings: for Uterus/ovary uptake in PET image (in words): 1 h postinjection
Procedure: PET imaging was performed on four domestic female pigs (30 lb) with a positron camera (Positron Corporation, Houston, Tex). Each pig was supine in the scanner so that the detector rings would span the entire pelvic region. Prior to scanning, the position of the uterus and ovaries was determined by hysterosalpingography. Fifteen milliliters of radiopaque (Renografin 76 Squibb Diagnostic, New Brunswick, N.J.) was injected through the vagina into the uterus via a 5 Fr catheter with the balloon inflated by 1 ml of air. Radiographs of the pelvis in the anterior-posterior projection were taken. The location of the uterus was marked permanently on the skin of each pig for positioning in the PET camera.
A 20 min attenuation scan was performed with a 4 mCi ^68 Ge-ring source prior to tracer injection. After each pig received 10 mCi of [^18 F]FTX, […] consecutive 10 min scans were acquired. There was a 5 min wait between scans for data transfer. […] In order to examine the blood clearance profile of [^18 F]FTX, venous blood samples (0.5 ml) were collected every minute for the first ten minutes, followed by every ten minutes up to two hours. Serial transaxial images of the pelvic region were performed in order to view the uterus. The tomograph has a field-of-view of t42 cm on transverse and 12 cm on coronal planes. The axial resolution on the reconstructed plane is 1.2 cm.

rabbit uterus = assay: Gamma scintigraphic imaging of estrogen receptor sites in rabbits; type: in vivo; settings: for Rabbit uterus uptake after DES block (in words): DES 15 mg iv pretreatment
Procedure: Gamma scintigraphic images were obtained from GE Starport System (GE Company, Milwaukee, Wis.). […] Each pixel was 14 bits deep. Six New Zealand female rabbits (3-4 Kg B.W.) were administered 300 μCi of [^131 I]iodotamoxifen (iv) and multiple images at 2, 24 and 48 hours were accomplished. To ascertain the radioactivity uptake in uterus is via an ER-mediated process, the rabbits were administered with diethylstilbestrol (15 mg,iv) 1 hour prior to receiving [^131 I]ITX and the images were obtained at 2, 24 and 48 hours.

[2] = 2 h, blocked with estradiol 30 μg, listed as 18 Ftracer, 120 min
[3] = 2 h, blocked with estradiol 30 μg, listed as N,N-DIETHYL-[^18 F]FLUOROMETHYLTAMOXIFEN, 120 min
[4] = 2 h, estradiol-primed, listed as 18 Ftracer, 120 min
[5] = 2 h, not primed, listed as 18 Ftracer, 120 min
[6] = 2 h, not primed, listed as N,N-DIETHYL-[^18 F]FLUOROMETHYLTAMOXIFEN, 120 min
[7] = 4 h, estradiol-primed, listed as 18 Ftracer, 240 min

Question: What does the source list for `CCN(CC)CCOc1ccc(/C(=C(/CCC[18F])c2ccccc2)c2ccccc2)cc1` [[^18 F]FTX, (trans)[^18 F]Fluoromethyl-N,N-diethyltamoxifen]?
Answer: Blood uptake [1, 2]: 0.048 % OF INJECTED DOSE/GRAM OF TIS; Bone uptake [1, 2]: 0.576 % OF INJECTED DOSE/GRAM OF TIS; Intestine uptake [1, 2]: 0.742 % OF INJECTED DOSE/GRAM OF TIS; Liver uptake [1, 2]: 4.451 % OF INJECTED DOSE/GRAM OF TIS; Muscle uptake [1, 2]: 0.145 % OF INJECTED DOSE/GRAM OF TIS; Uterus uptake [1, 2]: 0.297 % OF INJECTED DOSE/GRAM OF TIS; Blood uptake [1, 3]: 0.048 % OF INJECTED DOSE/GRAM OF TISSUE WEIGHT; Bone uptake [1, 3]: 0.576 % OF INJECTED DOSE/GRAM OF TISSUE WEIGHT; Intestine uptake [1, 3]: 0.742 % OF INJECTED DOSE/GRAM OF TISSUE WEIGHT; Liver uptake [1, 3]: 4.451 % OF INJECTED DOSE/GRAM OF TISSUE WEIGHT; Muscle uptake [1, 3]: 0.145 % OF INJECTED DOSE/GRAM OF TISSUE WEIGHT; Uterus uptake [1, 3]: 0.297 % OF INJECTED DOSE/GRAM OF TISSUE WEIGHT; Blood uptake [1, 4]: 0.033 % OF INJECTED DOSE/GRAM OF TIS; Bone uptake [1, 4]: 0.653 % OF INJECTED DOSE/GRAM OF TIS; Intestine uptake [1, 4]: 0.917 % OF INJECTED DOSE/GRAM OF TIS; Kidney uptake [1, 4]: 0.742 % OF INJECTED DOSE/GRAM OF TIS; Liver uptake [1, 4]: 4.540 % OF INJECTED DOSE/GRAM OF TIS; Muscle uptake [1, 4]: 0.151 % OF INJECTED DOSE/GRAM OF TIS; Uterus uptake [1, 4]: 0.426 % OF INJECTED DOSE/GRAM OF TIS; Bone uptake ([1]; 2 h, estradiol-primed, listed as [^18 F]fluoro analogue of tamoxifen, 120 min): 0.65 % OF INJECTED DOSE/GRAM OF TIS; Blood uptake [1, 5]: 0.033 % OF INJECTED DOSE/GRAM OF TIS; Bone uptake [1, 5]: 0.644 % OF INJECTED DOSE/GRAM OF TIS; Intestine uptake [1, 5]: 0.504 % OF INJECTED DOSE/GRAM OF TIS; Kidney uptake [1, 5]: 0.530 % OF INJECTED DOSE/GRAM OF TIS; Liver uptake [1, 5]: 3.849 % OF INJECTED DOSE/GRAM OF TIS; Muscle uptake [1, 5]: 0.109 % OF INJECTED DOSE/GRAM OF TIS; Uterus uptake [1, 5]: 0.248 % OF INJECTED DOSE/GRAM OF TIS; Blood uptake [1, 6]: 0.033 % OF INJECTED DOSE/GRAM OF TISSUE WEIGHT; Bone uptake [1, 6]: 0.644 % OF INJECTED DOSE/GRAM OF TISSUE WEIGHT; Intestine uptake [1, 6]: 0.504 % OF INJECTED DOSE/GRAM OF TISSUE WEIGHT; Kidney uptake [1, 6]: 0.530 % OF INJECTED DOSE/GRAM OF TISSUE WEIGHT; Liver uptake [1, 6]: 3.849 % OF INJECTED DOSE/GRAM OF TISSUE WEIGHT; Muscle uptake [1, 6]: 0.109 % OF INJECTED DOSE/GRAM OF TISSUE WEIGHT; Uterus uptake [1, 6]: 0.248 % OF INJECTED DOSE/GRAM OF TISSUE WEIGHT; Blood uptake [1, 7]: 0.045 % OF INJECTED DOSE/GRAM OF TIS; Bone uptake [1, 7]: 0.802 % OF INJECTED DOSE/GRAM OF TIS; Intestine uptake [1, 7]: 1.101 % OF INJECTED DOSE/GRAM OF TIS; Kidney uptake [1, 7]: 0.796 % OF INJECTED DOSE/GRAM OF TIS; Liver uptake [1, 7]: 4.205 % OF INJECTED DOSE/GRAM OF TIS; Muscle uptake [1, 7]: 0.183 % OF INJECTED DOSE/GRAM OF TIS; Uterus uptake [1, 7]: 0.400 % OF INJECTED DOSE/GRAM OF TIS; Bone uptake ([1]; 4 h, estradiol-primed, listed as [^18 F]fluoro analogue of tamoxifen, 240 min): 0.80 % OF INJECTED DOSE/GRAM OF TIS; SUV in lesion of patients responding poorly to tamoxifen therapy (breast tumors; listed as 18 F-tamoxifen): < 2.0; SUV in lesion of patients responding poorly to tamoxifen therapy (breast tumors; listed as [^18 f]fluorotamoxifen): less than 2.0; SUV (breast tumors; patient 1, left breast): 1.6; SUV (breast tumors; patient 1, spine): 6.2; SUV (breast tumors; patient 1, sternum): 4.2; SUV (breast tumors; patient 3, left breast): 2.6; SUV (breast tumors; patient 4, right axilla): 1.3; SUV (breast tumors; patient 5, lung): 3.3; SUV (breast tumors; patient 6, left axilla): 2.9; SUV (breast tumors; patient 7, skull): 0.9; SUV (breast tumors; patient 8, neck): 2.4; SUV (breast tumors; patient 9, scapula): 1.3; SUV (breast tumors; patient 10, spine): 6.3; Time to clearance from the blood stream (uterus and ovaries; 10 mCi i.v., pig): ≤ 10 min; Uterus/ovary uptake in PET image (in words) (uterus and ovaries; 10 mCi i.v.): increased uptake could be blocked after pretreatment with DES; Uterus/ovary uptake in PET image (in words) (uterus and ovaries; 10 mCi i.v., listed as 18 F-tamoxifen): can be blocked with DES; Uterus/ovary uptake in PET image (in words) (uterus and ovaries; 10 mCi i.v., listed as 18 F-tracer): increased uptake could be blocked after pretreatment with diethylstilbestrol; Target organ binding (in words) (uterus and ovaries; 30 minutes to 2 hours post-administration, pig): constant

Question: With `CCN(CC)CCOc1ccc(/C(=C(/CCC[131I])c2ccccc2)c2ccccc2)cc1` [^131 I-IODOTAMOXIFEN] as the molecule, how does the “uterus:muscle uptake ratio” value (rabbit uterus; 24 h postinjection) read?
Answer: 4.6

Question: What about the “Rabbit uterus uptake after DES block (in words)” value (from here on “Rabbit uterus uptake”) (rabbit uterus; listed as 131 l-iodotamoxifen) of the same molecule?
Answer: the uterus showed decreased uptake

Question: What about the “Rabbit uterus uptake” value (rabbit uterus; listed as [^131 I]ITX) of the same molecule?
Answer: rabbit uterus uptake can be blocked by pretreatment with DES

Question: And the “Rabbit uterus uptake” value (rabbit uterus; listed as [^131 ]ITX)?
Answer: increased uptake can be blocked by pretreatment of the rabbit with DES
